Measurements: patent US12357623B2, “Method for treating a disease or condition using a pyrazole compound or formulation thereof” (Rigel Pharmaceuticals, Inc., priority 2021, dated 2025)
Where a name gives a salt, the structure may show the parent alone.

Assays:
[1] = Physical and chemical stability of salts of compound I-18; assay type: physicochemical; conditions: for Area (%) of peak at RRT 1.00: main peak; for Area (%) of peak at RRT 1.17: peak corresponds to I-1 formed by hydrolysis; for Initial purity: before storage
Protocol: The physical and chemical stability of the K salt, Arginine salt, Choline salt and Tris salt were evaluated under conditions of 25° C./60% RH and 40° C./75% RH for 1 week. Each sample was added into 3 mL glass vials, sealed by parafilm with several holes, and kept under tested condition. After one week, samples was taken for XRPD and HPLC purity test.

[2] = Hygroscopicity evaluation (DVS) of salts of compound I-18; assay type: physicochemical; conditions: 25° C.
Protocol: To investigate the solid form stability as a function of humidity, DVS isotherm plot of the K salt, Arginine salt, Choline salt and Tris salt were collected at 25° C. between 0 and 95% RH.

[3] = 25° C./60% RH, 1 week, listed as tris salt
[4] = 40° C./75% RH, 1 week, listed as tris salt
[5] = 25° C./60% RH, 1 week, listed as potassium salt
[6] = 40° C./75% RH, 1 week, listed as potassium salt
[7] = Initial, listed as potassium salt
[8] = 25° C./60% RH, 1 week, listed as arginine salt
[9] = 40° C./75% RH, 1 week, listed as arginine salt
[10] = Initial, listed as arginine salt

CCO[C@H]1CC[C@H](n2cc(NC(=O)c3csc(-c4cnn(C(C)OP(=O)(O)O)c4)n3)c(-c3nc(F)ccc3F)n2)CC1 (some centres unmarked) [Compound I-49, 1-(4-(4-((3-(3,6-difluoropyridin-2-yl)-1-((1r, 4r)-4-ethoxycyclohexyl)-1H-pyrazol-4-yl)carbamoyl)thiazol-2-yl)-1H-pyrazol-1-yl)ethyl dihydrogen phosphate tris salt]
Area (%) of peak at RRT 1.13 ([1]; 25° C./60% RH, 1 week): 0.06%
Area (%) of peak at RRT 0.77 [1, 3]: <0.03%
Area (%) of peak at RRT 1.45 [1, 3]: 0.35%
Area (%) of peak at RRT 1.71 [1, 3]: 0.80%
Area (%) of peak at RRT 1.73 [1, 3]: 0.55%
HPLC purity change [1, 3]: no HPLC purity decrease
Area (%) of peak at RRT 1.00 [1, 3]: 96.61%
Area (%) of peak at RRT 1.17 [1, 3]: 1.63%
Form change (XRPD) ([1]; 25° C./60% RH/1 week, listed as Tris salt): no form change and No
Area (%) of peak at RRT 0.77 [1, 4]: 0.03%
Area (%) of peak at RRT 1.45 [1, 4]: 0.47%
Area (%) of peak at RRT 1.71 [1, 4]: 0.88%
Area (%) of peak at RRT 1.73 [1, 4]: 0.84%
HPLC purity change [1, 4]: a purity decrease was observed
Area (%) of peak at RRT 1.00 [1, 4]: 95.03%
Area (%) of peak at RRT 1.17 [1, 4]: 2.69%
Form change (XRPD) ([1]; 40° C./75% RH/1 week, listed as Tris salt): no form change and No
Area (%) of peak at RRT 0.77 ([1]; Initial, listed as tris salt): <0.03%
Area (%) of peak at RRT 1.13 ([1]; Initial, listed as tris salt): 0.07%
Area (%) of peak at RRT 1.45 ([1]; Initial, listed as tris salt): 0.37%
Area (%) of peak at RRT 1.71 ([1]; Initial, listed as tris salt): 0.86%
Area (%) of peak at RRT 1.73 ([1]; Initial, listed as tris salt): 0.76%
Area (%) of peak at RRT 1.00 ([1]; Initial, listed as tris salt): 96.06%
Area (%) of peak at RRT 1.17 ([1]; Initial, listed as tris salt): 1.87%
Initial purity ([1]; listed as Tris salt): 96.06 area %
water uptake (DVS) ([2]; at 70% RH, listed as Tris salt): 6.06%
water uptake (DVS) ([2]; at 95% RH, listed as Tris salt): 39.5%

CCO[C@H]1CC[C@H](n2cc(NC(=O)c3csc(-c4cnn(C(C)OP(=O)(O)O)c4)n3)c(-c3nc(F)ccc3F)n2)CC1 (some centres unmarked) [Compound I-108, potassium 1-(4-(4-((3-(3,6-difluoropyridin-2-yl)-1-((1r, 4r)-4-ethoxycyclohexyl)-1H-pyrazol-4-yl)carbamoyl)thiazol-2-yl)-1H-pyrazol-1-yl)ethyl hydrogen phosphate]
Area (%) of peak at RRT 1.14 ([1]; 25° C./60% RH, 1 week): <0.04%
Area (%) of peak at RRT 1.40 ([1]; 25° C./60% RH, 1 week): 0.25%
Area (%) of peak at RRT 1.44 ([1]; 25° C./60% RH, 1 week): 0.30%
Area (%) of peak at RRT 1.70 ([1]; 25° C./60% RH, 1 week): 0.27%
Area (%) of peak at RRT 1.72 ([1]; 25° C./60% RH, 1 week): 0.78%
Area (%) of peak at RRT 1.81 ([1]; 25° C./60% RH, 1 week): <0.04%
HPLC purity change ([1]; 25° C./60% RH, 1 week, listed as K salt): slight purity decrease
Area (%) of peak at RRT 1.00 [1, 5]: 96.26%
Area (%) of peak at RRT 1.17 [1, 5]: 2.14%
Form change (XRPD) ([1]; 25° C./60% RH/1 week, listed as K salt): no form change and No
Area (%) of peak at RRT 1.14 ([1]; 40° C./75% RH, 1 week): 0.05%
Area (%) of peak at RRT 1.40 ([1]; 40° C./75% RH, 1 week): 0.39%
Area (%) of peak at RRT 1.44 ([1]; 40° C./75% RH, 1 week): 0.24%
Area (%) of peak at RRT 1.70 ([1]; 40° C./75% RH, 1 week): 0.24%
Area (%) of peak at RRT 1.72 ([1]; 40° C./75% RH, 1 week): 0.83%
Area (%) of peak at RRT 1.81 ([1]; 40° C./75% RH, 1 week): 0.04%
HPLC purity change ([1]; 40° C./75% RH, 1 week, listed as K salt): slight purity decrease
Area (%) of peak at RRT 1.00 [1, 6]: 96.40%
Area (%) of peak at RRT 1.17 [1, 6]: 1.80%
Form change (XRPD) ([1]; 40° C./75% RH/1 week, listed as K salt): a form change was observed and Yes
Area (%) of peak at RRT 1.14 ([1]; Initial): <0.04%
Area (%) of peak at RRT 1.40 ([1]; Initial): 0.23%
Area (%) of peak at RRT 1.44 ([1]; Initial): 0.21%
Area (%) of peak at RRT 1.70 ([1]; Initial): 0.18%
Area (%) of peak at RRT 1.72 ([1]; Initial): 0.77%
Area (%) of peak at RRT 1.81 ([1]; Initial): <0.04%
Area (%) of peak at RRT 1.00 [1, 7]: 97.27%
Area (%) of peak at RRT 1.17 [1, 7]: 1.33%
Initial purity ([1]; listed as K salt): 97.27 area %
water uptake (DVS) ([2]; at 70% RH, listed as K salt): 0.42%
water uptake (DVS) ([2]; at 95% RH, listed as K salt): 16.5%

CCO[C@H]1CC[C@H](n2cc(NC(=O)c3csc(-c4cnn(C(C)OP(=O)(O)O)c4)n3)c(-c3nc(F)ccc3F)n2)CC1 (some centres unmarked) [Compound I-110, 1-(4-(4-((3-(3,6-difluoropyridin-2-yl)-1-((1r, 4r)-4-ethoxycyclohexyl)-1H-pyrazol-4-yl)carbamoyl)thiazol-2-yl)-1H-pyrazol-1-yl)ethyl dihydrogen phosphate arginine salt]
Area (%) of peak at RRT 1.13 ([1]; 25° C./60% RH, 1 week): 0.06%
Area (%) of peak at RRT 0.77 [1, 8]: 0.03%
Area (%) of peak at RRT 1.35 [1, 8]: 0.06%
Area (%) of peak at RRT 1.45 [1, 8]: 0.50%
Area (%) of peak at RRT 1.71 [1, 8]: 0.74%
Area (%) of peak at RRT 1.73 [1, 8]: 0.61%
HPLC purity change [1, 8]: slight purity decrease
Area (%) of peak at RRT 1.00 [1, 8]: 95.31%
Area (%) of peak at RRT 1.17 [1, 8]: 2.68%
Form change (XRPD) ([1]; 25° C./60% RH/1 week, listed as Arginine salt): no form change and No
Area (%) of peak at RRT 1.13 ([1]; 40° C./75% RH, 1 week): 0.06%
Area (%) of peak at RRT 0.77 [1, 9]: 0.04%
Area (%) of peak at RRT 1.35 [1, 9]: 0.11%
Area (%) of peak at RRT 1.45 [1, 9]: 0.47%
Area (%) of peak at RRT 1.71 [1, 9]: 0.73%
Area (%) of peak at RRT 1.73 [1, 9]: 0.60%
HPLC purity change [1, 9]: slight purity decrease
Area (%) of peak at RRT 1.00 [1, 9]: 95.50%
Area (%) of peak at RRT 1.17 [1, 9]: 2.48%
Form change (XRPD) ([1]; 40° C./75% RH/1 week, listed as Arginine salt): no form change and No
Area (%) of peak at RRT 1.35 ([1]; Initial): <0.03%
Area (%) of peak at RRT 0.77 [1, 10]: <0.03%
Area (%) of peak at RRT 1.13 [1, 10]: <0.03%
Area (%) of peak at RRT 1.45 [1, 10]: 0.44%
Area (%) of peak at RRT 1.71 [1, 10]: 0.73%
Area (%) of peak at RRT 1.73 [1, 10]: <0.53%
Area (%) of peak at RRT 1.00 [1, 10]: 95.91%
Area (%) of peak at RRT 1.17 [1, 10]: 2.39%
Initial purity ([1]; listed as Arginine salt): 95.91 area %
water uptake (DVS) ([2]; at 80% RH): 1.43%
hygroscopicity (DVS) ([2]; from water uptake at 80% RH): slight hygroscopic
